Reference: US11419921B2, “Methods of treating neurological disorders” (EnClear Therapies, Inc., priority 2018, dated 2022)

Test system: (GR)10
Assay: Cleavage of (GR)10 by enzymes in solution (PBS with CaCl2 and MgCl2), LC/MS of GR repeats
Assay type: biochemical
Details: for (GR)1 concentration / (GR)2 concentration / (GR)4 concentration / (GR)6 concentration / (GR)8 concentration / (GR)10 concentration: (GR)10 50 μM; for (GR)1 / (GR)2 / (GR)3 / (GR)4 / (GR)5 / (GR)6 / (GR)8 / (GR)10: PBS, normalized
Procedure: • (GR)10 dipeptide (also (GR)8, (GR)6, (GR)4, (GR)2) were synthetized by solid-phase synthesis by CanPeptide; All peptides are uncapped and supplied lyophilized with TFA as counter ions. Purity was always above 95%. • Buffer: PBS buffer containing CaCl2 and MgCl2. • Stock solution of enzyme (e.g., 10 mg/mL) (prepared per manufacturer instructions) in PBS. Activators added as necessary. • Working solution of protein of the desired concentration (e.g., 100 μg/mL) prepared immediately before use by diluting the stock solution (e.g., 5 μL of 10 mg/mL stock solution) in PBS buffer (e.g., in 495 μL of PBS). Exemplary Procedure Using 50 μM Concentrations of (GR)10
25 μL of a 100 μM solution of (GR)10 was added to each well of a 96-well plate. 25 μL of a solution of enzyme (two times the desired final enzyme concentration) was added, and the plates were incubated at room temperature. At the specified time points (5 minutes, 10 minutes, 30 minutes, 60 minutes, and 180 minutes) 2.5 μL of a 10% TFA solution were added to stop the reaction. For the time 0 min well, the TFA was added to the well before addition of the enzyme. After last time point, all samples were further diluted with 150 μL of dilution solution. The quenched reaction mixtures were analyzed by LC/MS to determine the concentration of GR repeats of different lengths.
The chromatography and mass spectrometry conditions utilized are shown in Table 2 and Table 3, respectively.

- (GR)1 concentration (enzyme 2.5 μg/mL, 0 min): BLQ
- (GR)2 concentration (enzyme 2.5 μg/mL, 0 min): BLQ
- (GR)4 concentration (enzyme 2.5 μg/mL, 0 min): BLQ
- (GR)6 concentration (enzyme 2.5 μg/mL, 0 min): BLQ
- (GR)8 concentration (enzyme 2.5 μg/mL, 0 min): BLQ
- (GR)10 concentration (enzyme 2.5 μg/mL, 0 min): 53.8 µM
- (GR)1 concentration (enzyme 2.5 μg/mL, 5 min): 0.2 µM
- (GR)2 concentration (enzyme 2.5 μg/mL, 5 min): 0.2 µM
- (GR)4 concentration (enzyme 2.5 μg/mL, 5 min): BLQ
- (GR)6 concentration (enzyme 2.5 μg/mL, 5 min): BLQ
- (GR)8 concentration (enzyme 2.5 μg/mL, 5 min): 0.3 µM
- (GR)10 concentration (enzyme 2.5 μg/mL, 5 min): 52.6 µM
- (GR)1 concentration (enzyme 2.5 μg/mL, 10 min): 0.3 µM
- (GR)2 concentration (enzyme 2.5 μg/mL, 10 min): 0.2 µM
- (GR)4 concentration (enzyme 2.5 μg/mL, 10 min): 0.2 µM
- (GR)6 concentration (enzyme 2.5 μg/mL, 10 min): BLQ
- (GR)8 concentration (enzyme 2.5 μg/mL, 10 min): 0.6 µM
- (GR)10 concentration (enzyme 2.5 μg/mL, 10 min): 52.5 µM
- (GR)1 concentration (enzyme 2.5 μg/mL, 30 min): 1.3 µM
- (GR)2 concentration (enzyme 2.5 μg/mL, 30 min): 0.8 µM
- (GR)4 concentration (enzyme 2.5 μg/mL, 30 min): 0.7 µM
- (GR)6 concentration (enzyme 2.5 μg/mL, 30 min): 0.7 µM
- (GR)8 concentration (enzyme 2.5 μg/mL, 30 min): 0.6 µM
- (GR)10 concentration (enzyme 2.5 μg/mL, 30 min): 43.6 µM
- (GR)1 concentration (enzyme 2.5 μg/mL, 60 min): 2.3 µM
- (GR)2 concentration (enzyme 2.5 μg/mL, 60 min): 1.4 µM
- (GR)4 concentration (enzyme 2.5 μg/mL, 60 min): 1.4 µM
- (GR)6 concentration (enzyme 2.5 μg/mL, 60 min): 1.0 µM
- (GR)8 concentration (enzyme 2.5 μg/mL, 60 min): 1.6 µM
- (GR)10 concentration (enzyme 2.5 μg/mL, 60 min): 35.3 µM
- (GR)1 concentration (enzyme 2.5 μg/mL, 120 min): 4.3 µM
- (GR)2 concentration (enzyme 2.5 μg/mL, 120 min): 2.1 µM
- (GR)4 concentration (enzyme 2.5 μg/mL, 120 min): 2.3 µM
- (GR)6 concentration (enzyme 2.5 μg/mL, 120 min): 1.5 µM
- (GR)8 concentration (enzyme 2.5 μg/mL, 120 min): 2.5 µM
- (GR)10 concentration (enzyme 2.5 μg/mL, 120 min): 24.9 µM
- (GR)1 concentration (enzyme 10 μg/mL, 0 min): BLQ
- (GR)2 concentration (enzyme 10 μg/mL, 0 min): BLQ
- (GR)4 concentration (enzyme 10 μg/mL, 0 min): BLQ
- (GR)6 concentration (enzyme 10 μg/mL, 0 min): BLQ
- (GR)8 concentration (enzyme 10 μg/mL, 0 min): BLQ
- (GR)10 concentration (enzyme 10 μg/mL, 0 min): 41.6 µM
- (GR)1 concentration (enzyme 10 μg/mL, 5 min): 0.8 µM
- (GR)2 concentration (enzyme 10 μg/mL, 5 min): 0.5 µM
- (GR)4 concentration (enzyme 10 μg/mL, 5 min): 0.5 µM
- (GR)6 concentration (enzyme 10 μg/mL, 5 min): 0.4 µM
- (GR)8 concentration (enzyme 10 μg/mL, 5 min): 0.9 µM
- (GR)10 concentration (enzyme 10 μg/mL, 5 min): 50.5 µM
- (GR)1 concentration (enzyme 10 μg/mL, 10 min): 1.4 µM
- (GR)2 concentration (enzyme 10 μg/mL, 10 min): 0.8 µM
- (GR)4 concentration (enzyme 10 μg/mL, 10 min): 0.7 µM
- (GR)6 concentration (enzyme 10 μg/mL, 10 min): 0.8 µM
- (GR)8 concentration (enzyme 10 μg/mL, 10 min): 0.9 µM
- (GR)10 concentration (enzyme 10 μg/mL, 10 min): 37.8 µM
- (GR)1 concentration (enzyme 10 μg/mL, 30 min): 5.1 µM
- (GR)2 concentration (enzyme 10 μg/mL, 30 min): 2.5 µM
- (GR)4 concentration (enzyme 10 μg/mL, 30 min): 2.2 µM
- (GR)6 concentration (enzyme 10 μg/mL, 30 min): 1.6 µM
- (GR)8 concentration (enzyme 10 μg/mL, 30 min): 2.8 µM
- (GR)10 concentration (enzyme 10 μg/mL, 30 min): 21.1 µM
- (GR)1 concentration (enzyme 10 μg/mL, 60 min): 8.3 µM
- (GR)2 concentration (enzyme 10 μg/mL, 60 min): 3.7 µM
- (GR)4 concentration (enzyme 10 μg/mL, 60 min): 2.8 µM
- (GR)6 concentration (enzyme 10 μg/mL, 60 min): 2.2 µM
- (GR)8 concentration (enzyme 10 μg/mL, 60 min): 3.3 µM
- (GR)10 concentration (enzyme 10 μg/mL, 60 min): 12.2 µM
- (GR)1 concentration (enzyme 10 μg/mL, 120 min): 15.1 µM
- (GR)2 concentration (enzyme 10 μg/mL, 120 min): 6.3 µM
- (GR)4 concentration (enzyme 10 μg/mL, 120 min): 3.2 µM
- (GR)6 concentration (enzyme 10 μg/mL, 120 min): 2.0 µM
- (GR)8 concentration (enzyme 10 μg/mL, 120 min): 1.3 µM
- (GR)10 concentration (enzyme 10 μg/mL, 120 min): 2.4 µM
- (GR)1 (in solution - 5 min reaction): 1.4 µM
- (GR)2 (in solution - 5 min reaction): 2.9 µM
- (GR)3 (in solution - 5 min reaction): 2.1 µM
- (GR)4 (in solution - 5 min reaction): 3.1 µM
- (GR)5 (in solution - 5 min reaction): 2.3 µM
- (GR)6 (in solution - 5 min reaction): 4.4 µM
- (GR)8 (in solution - 5 min reaction): 6.8 µM
- (GR)10 (in solution - 5 min reaction): 213.3 µM
- (GR)1 (in solution - 60 min reaction): 5.4 µM
- (GR)2 (in solution - 60 min reaction): 12.8 µM
- (GR)3 (in solution - 60 min reaction): 8.5 µM
- (GR)4 (in solution - 60 min reaction): 8.8 µM
- (GR)5 (in solution - 60 min reaction): 6.0 µM
- (GR)6 (in solution - 60 min reaction): 9 µM
- (GR)8 (in solution - 60 min reaction): 12.8 µM
- (GR)10 (in solution - 60 min reaction): 21.6 µM
Substance: Elastase: protease that cleaves at the carboxyl side of small hydrophobic amino acids; in Table 22 also immobilized on agarose resin
